Measurements: publication PMC5368057, “Structural, thermodynamic, and phosphatidylinositol 3‐phosphate binding properties of Phafin2” (Protein Science : A Publication of the Protein Society, 2017)

Target: T1, Phafin2 (Homo sapiens, UniProt Q9H8W4)
T1 construct: gene PLEKHF2; full length (PH and FYVE domains; C-terminal tryptic peptide 224-249), pGEX4T3 GST fusion, GST removed by thrombin; N-terminus Gly-Ser-Met-Val-Asp (Gly-Ser from vector); E. coli Rosetta; 27,941 Da; monomer
T1 sequence (Q9H8W4 1-249): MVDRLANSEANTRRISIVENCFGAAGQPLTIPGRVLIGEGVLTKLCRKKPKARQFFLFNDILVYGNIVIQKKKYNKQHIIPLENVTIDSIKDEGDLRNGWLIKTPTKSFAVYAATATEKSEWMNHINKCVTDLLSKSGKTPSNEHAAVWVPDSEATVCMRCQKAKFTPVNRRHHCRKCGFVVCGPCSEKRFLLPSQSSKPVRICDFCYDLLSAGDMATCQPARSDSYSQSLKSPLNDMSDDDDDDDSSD
Test: SPR, liposomes on L1 chip, two-state conformational change fit
Assay type: binding
Settings: 1.5% lipid in phosphatidylcholine (DOPC) liposomes, control liposomes without it; liposome buffer 20 mM HEPES pH 7.0, 100 mM NaCl; room temperature; apparent

- Kd: 0.285 ± 0.08 µM
SMILES: CCCCCCCCCCCCCCCC(=O)OC[C@H](COP(=O)(O)O[C@@H]1[C@H](O)[C@H](OP(=O)(O)O)[C@@H](O)[C@H](O)[C@H]1O)OC(=O)CCCCCCCCCCCCCCC [dipalmitoyl PtdIns(3)P]
